Results reported in US20070238671A1, “Isopeptide Gap Junction Modulators” (priority 2003, published 2007).

Key:
[1] = tested on: human osteoblast cells; assay: Standard tumor promoter assay: Lucifer Yellow dye transfer, DDT-induced uncoupling; format: cell-based; conditions: DDT 13 μM for 60 minutes, n=13; control without DDT median 14.5 cells
Excerpt: The compound 1,1-bis(p-chlorophenyl)-2,2,2-trichlorethane, also known as the insecticide DDT, is an inhibitor of gap junctional communication, and has tumor promoting abilities. It inhibits cell-to-cell communication by reducing the gap junction number and size, and exposure to DDT is associated with decreased cellular levels of phosphorylated (active) forms of the gap junction protein Cx43. These actions are considered pivotal for the compound's oncogenic properties (X. Guan, et al. (1996) Carcinogenesis, 17 1791-1798; R. J. Ruch, et al. (1994) Carcinogenesis, 15 301-306); B. V. Madhukar, et al. (1996) Cancer Lett. 106 117-123). As a means of monitoring the therapeutic efficacy of the isopeptides, the effects of the isopeptides on DDT-induced uncoupling in human osteoblast cells can be determined. […]
After harvesting, the mononuclear fraction is washed once with culture medium and centrifuged at 1800 rpm for 10 minutes. Subsequently cells are counted and plated in culture medium at 8×10^6 cells/100 mm dish. […]
After culturing, cells are affixed to a PDMI-2 culture chamber (Medical Systems Corp.), maintained at 37° C. with superfused CO2, on a Zeiss Axiovert microscope. […] A cell in the monolayer is carefully injected with LY for 30 seconds; the micropipette is removed from the cell and after 30 seconds the number of cells that show dye transfer is counted. […]

[2] = tested on: calcium-induced arrhythmias; assay: Calcium-induced arrhythmia model (Lynch et al.) in mice; format: in vivo, Male NMRI mice; conditions: isopeptide 1 nmol/kg i.v. 3 min before CaCl2 infusion; (tarr(testcompound)-tarr(vehicle))x100/tarr(vehicle), time lag to first conduction block
Protocol: Isopeptides suitable for administration to cardiac cells can be identified in an in vivo model of calcium-induced arrhythmias according to the model of Lynch et al. (1981) J Cardiovasc. Pharmacol. 3: 49-60. Mice (25-30 g) are anaesthetized with a neurolept anaesthetic combination and an i.v. cannula is inserted into the tail vein. A lead II ECG signal is recorded continuously by positioning a stainless steel ECG electrodes on the right forelimb and on the left hind limb. The ground electrode is placed on the right hind limb. The signal is amplified (x 5.000-10.000) and filtered (0.1-150 Hz) via a Hugo Sachs Electronic model 689 ECG module. The analog signal is digitized via a 12 bit data acquisition board (Data Translation model DT321) and sampled at 1000 Hz using the Notocord HEM 3.1 software for Windows NT. After a 10-minute equilibration period, the test sample of peptide is injected into the tail vein. Mice pre-treated with buffer are tested as a measure of the control level in untreated animals. The injection volume is 100 μl in all experiments.
Infusion of CaCl2 (30 mg/ml, 0.1 ml/min≈100 mg/kg/min (calcium chloride-2-hydrate, Riedel-de Haën, Germany)) is started 3 min after i.v. administration of drug or vehicle. The time lag to onset of 2nd degree AV-block is determined as the time from the start of CaCl2 infusion until the first arrhythmic event occurs. An event of 2nd degree AV-block is defined as intermittent failure of the AV conduction characterised by a P-wave without the concomitant QRS complex.
Responses are expressed relative to the time until 2nd degree AV-block occurred in vehicle treated mice. The maximal effect of compounds (e.g., isopeptides, AAP, AAP10 or controls) is determined. […]
An intravenous cannula was inserted into the tail vein. The lead II ECG signal was recorded continuously by positioning of stainless steel ECG electrodes on the right forelimb and on the left hind limb. […]

| Molecule | number of cells that show dye transfer (median) [1] | % response [2] [%] |
| --- | --- | --- |
| Clc1ccc(C(c2ccc(Cl)cc2)C(Cl)(Cl)Cl)cc1 [DDT, 1,1-bis(p-chlorophenyl)-2,2,2-trichlorethane] | 7 | – |
| H-Gly-iso-D-Lys(4-methoxybenzoyl)-OH [Compound 18] | – | 16 |
| H-Gly-iso-D-Lys(4-nitrobenzoyl)-OH [Compound 19] | – | 33 |
| H-iso-Gln(NH(4-methoxybenzyl))-Ala-OH [Compound 101] | – | 68 |
| H-iso-Gln(NH(4-methoxybenzyl))-D-Ala-OH [Compound 116] | – | 25 |
